PubChem BioAssay (NCI)
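How tested: cells in 96-well plates exposed to compound for 48 hours at five concentrations. TGI: concentration producing complete growth inhibition.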

Tests used:
Experiment in all cases: NCI-60 cell line screen, 48 h
HL-60(TB) leukemia = tested on: HL-60(TB) leukemia
SW-620 colon = tested on: SW-620 colon
A549 NSCLC = tested on: A549 NSCLC
M19-MEL melanoma = tested on: M19-MEL melanoma
HCT-116 colon = tested on: HCT-116 colon
EKVX NSCLC = tested on: EKVX NSCLC
HOP-92 NSCLC = tested on: HOP-92 NSCLC
NCI-H460 lung = tested on: NCI-H460 lung
UACC-62 melanoma = tested on: UACC-62 melanoma
CAKI-1 renal = tested on: CAKI-1 renal
SR leukemia = tested on: SR leukemia
IGROV1 ovarian = tested on: IGROV1 ovarian
HT29 colon = tested on: HT29 colon
SF-295 CNS = tested on: SF-295 CNS
OVCAR-5 ovarian = tested on: OVCAR-5 ovarian
K-562 leukemia = tested on: K-562 leukemia
OVCAR-8 ovarian = tested on: OVCAR-8 ovarian
SK-MEL-2 melanoma = tested on: SK-MEL-2 melanoma
OVCAR-3 ovarian = tested on: OVCAR-3 ovarian
SNB-78 CNS = tested on: SNB-78 CNS
UO-31 renal = tested on: UO-31 renal
SF-268 CNS = tested on: SF-268 CNS
SK-MEL-5 melanoma = tested on: SK-MEL-5 melanoma
HCC-2998 colon = tested on: HCC-2998 colon
TK-10 renal = tested on: TK-10 renal
CCRF-CEM leukemia = tested on: CCRF-CEM leukemia
KM20L2 colon = tested on: KM20L2 colon
786-0 renal = tested on: 786-0 renal
SF-539 CNS = tested on: SF-539 CNS
HOP-18 NSCLC = tested on: HOP-18 NSCLC
NCI-H522 lung = tested on: NCI-H522 lung
SNB-19 CNS = tested on: SNB-19 CNS
DLD-1 colon = tested on: DLD-1 colon
RXF 393 renal = tested on: RXF 393 renal
NCI-H226 lung = tested on: NCI-H226 lung
DMS 114 small cell lung = tested on: DMS 114 small cell lung
SN12C renal = tested on: SN12C renal
COLO 205 colon = tested on: COLO 205 colon
RPMI-8226 leukemia = tested on: RPMI-8226 leukemia
HOP-62 NSCLC = tested on: HOP-62 NSCLC
XF 498 CNS = tested on: XF 498 CNS
HCT-15 colon = tested on: HCT-15 colon
MOLT-4 leukemia = tested on: MOLT-4 leukemia
LXFL 529 NSCLC = tested on: LXFL 529 NSCLC
U251 CNS = tested on: U251 CNS
M14 melanoma = tested on: M14 melanoma
UACC-257 melanoma = tested on: UACC-257 melanoma
A498 renal = tested on: A498 renal
ACHN renal = tested on: ACHN renal
OVCAR-4 ovarian = tested on: OVCAR-4 ovarian
SK-MEL-28 melanoma = tested on: SK-MEL-28 melanoma
SK-OV-3 ovarian = tested on: SK-OV-3 ovarian
LOX IMVI melanoma = tested on: LOX IMVI melanoma
KM12 colon = tested on: KM12 colon
NCI-H23 lung = tested on: NCI-H23 lung
DMS 273 small cell lung = tested on: DMS 273 small cell lung
MALME-3M melanoma = tested on: MALME-3M melanoma
SNB-75 CNS = tested on: SNB-75 CNS

## CNc1ccc(/C=C2\C=Cc3ccccc32)cc1
HL-60(TB) leukemia
  TGI: > 100 µM
SW-620 colon
  TGI: > 100 µM
A549 NSCLC
  TGI: > 100 µM
M19-MEL melanoma
  TGI: > 100 µM
HCT-116 colon
  TGI: > 100 µM
EKVX NSCLC
  TGI: 91.1 µM
HOP-92 NSCLC
  TGI: 50.9 µM
NCI-H460 lung
  TGI: 37.9 µM
UACC-62 melanoma
  TGI: 71.9 µM
CAKI-1 renal
  TGI: > 100 µM
SR leukemia
  TGI: > 100 µM
IGROV1 ovarian
  TGI: > 100 µM
HT29 colon
  TGI: 38.4 µM
SF-295 CNS
  TGI: 99 µM
OVCAR-5 ovarian
  TGI: 45 µM
K-562 leukemia
  TGI: > 100 µM
OVCAR-8 ovarian
  TGI: > 100 µM
SK-MEL-2 melanoma
  TGI: 42 µM
OVCAR-3 ovarian
  TGI: 51.9 µM
SNB-78 CNS
  TGI: > 100 µM
UO-31 renal
  TGI: 30.5 µM
SF-268 CNS
  TGI: > 100 µM
SK-MEL-5 melanoma
  TGI: 54.3 µM
HCC-2998 colon
  TGI: 31.4 µM
TK-10 renal
  TGI: 54.6 µM
CCRF-CEM leukemia
  TGI: > 100 µM
KM20L2 colon
  TGI: 35.8 µM
786-0 renal
  TGI: > 100 µM
SF-539 CNS
  TGI: > 100 µM
HOP-18 NSCLC
  TGI: 55.2 µM
NCI-H522 lung
  TGI: 25.3 µM
SNB-19 CNS
  TGI: > 100 µM
DLD-1 colon
  TGI: > 100 µM
RXF 393 renal
  TGI: > 100 µM
NCI-H226 lung
  TGI: 57.3 µM
DMS 114 small cell lung
  TGI: 44.9 µM
SN12C renal
  TGI: > 100 µM
COLO 205 colon
  TGI: 33.3 µM
RPMI-8226 leukemia
  TGI: > 100 µM
HOP-62 NSCLC
  TGI: 53.7 µM
XF 498 CNS
  TGI: > 100 µM
HCT-15 colon
  TGI: > 100 µM
MOLT-4 leukemia
  TGI: > 100 µM
LXFL 529 NSCLC
  TGI: > 100 µM
U251 CNS
  TGI: > 100 µM
M14 melanoma
  TGI: 36.1 µM
UACC-257 melanoma
  TGI: > 100 µM
A498 renal
  TGI: 96.8 µM
ACHN renal
  TGI: 54.5 µM
OVCAR-4 ovarian
  TGI: > 100 µM
SK-MEL-28 melanoma
  TGI: > 100 µM
SK-OV-3 ovarian
  TGI: > 100 µM
LOX IMVI melanoma
  TGI: 24.5 µM
KM12 colon
  TGI: 26.4 µM
NCI-H23 lung
  TGI: 57.7 µM
DMS 273 small cell lung
  TGI: 71.3 µM

## CCCCc1c2c(nc3c1CCCC3=O)C(=O)CCC2
HL-60(TB) leukemia
  TGI: > 100 µM
SW-620 colon
  TGI: > 100 µM
A549 NSCLC
  TGI: > 100 µM
M19-MEL melanoma
  TGI: > 100 µM
HCT-116 colon
  TGI: > 100 µM
EKVX NSCLC
  TGI: > 100 µM
HOP-92 NSCLC
  TGI: > 100 µM
NCI-H460 lung
  TGI: > 100 µM
MALME-3M melanoma
  TGI: > 100 µM
UACC-62 melanoma
  TGI: > 100 µM
SR leukemia
  TGI: > 100 µM
IGROV1 ovarian
  TGI: > 100 µM
HT29 colon
  TGI: > 100 µM
SF-295 CNS
  TGI: > 100 µM
OVCAR-5 ovarian
  TGI: > 100 µM
K-562 leukemia
  TGI: > 100 µM
OVCAR-8 ovarian
  TGI: > 100 µM
SK-MEL-2 melanoma
  TGI: > 100 µM
OVCAR-3 ovarian
  TGI: > 100 µM
SNB-78 CNS
  TGI: > 100 µM
UO-31 renal
  TGI: > 100 µM
SF-268 CNS
  TGI: > 100 µM
SK-MEL-5 melanoma
  TGI: > 100 µM
HCC-2998 colon
  TGI: > 100 µM
TK-10 renal
  TGI: > 100 µM
CCRF-CEM leukemia
  TGI: > 100 µM
KM20L2 colon
  TGI: > 100 µM
786-0 renal
  TGI: > 100 µM
SF-539 CNS
  TGI: > 100 µM
HOP-18 NSCLC
  TGI: > 100 µM
NCI-H522 lung
  TGI: > 100 µM
SNB-19 CNS
  TGI: > 100 µM
DLD-1 colon
  TGI: > 100 µM
RXF 393 renal
  TGI: > 100 µM
NCI-H226 lung
  TGI: > 100 µM
DMS 114 small cell lung
  TGI: > 100 µM
SN12C renal
  TGI: > 100 µM
COLO 205 colon
  TGI: > 100 µM
RPMI-8226 leukemia
  TGI: > 100 µM
HOP-62 NSCLC
  TGI: > 100 µM
XF 498 CNS
  TGI: > 100 µM
HCT-15 colon
  TGI: > 100 µM
MOLT-4 leukemia
  TGI: > 100 µM
LXFL 529 NSCLC
  TGI: > 100 µM
SNB-75 CNS
  TGI: > 100 µM
U251 CNS
  TGI: > 100 µM
M14 melanoma
  TGI: > 100 µM
UACC-257 melanoma
  TGI: > 100 µM
A498 renal
  TGI: > 100 µM
ACHN renal
  TGI: > 100 µM
OVCAR-4 ovarian
  TGI: > 100 µM
SK-MEL-28 melanoma
  TGI: > 100 µM
SK-OV-3 ovarian
  TGI: > 100 µM
LOX IMVI melanoma
  TGI: > 100 µM
KM12 colon
  TGI: > 100 µM
NCI-H23 lung
  TGI: > 100 µM
DMS 273 small cell lung
  TGI: > 100 µM
